Test results published in patent US20260308157A1, “Pyrrolopyrazine Compounds, Preparation Thereof and Therapeutic Uses Thereof” (Sanofi, priority 2023, published 2026).

What was measured:
Cellular ERK5 Activity = biological target: T1, Cellular ERK5 Activity (Homo sapiens, UniProt Q13164); experiment: Inhibition of Cellular ERK5 Activity (cell-based assay, MEF2 luciferase reporter in SN12C cells); conditions: renal cancer cell line SN12C, doxycycline-induced MEK5DD, 0.3-10000 nM, mean where repeated
T1 construct: MEF2-response-element luciferase reporter (pGreenFire1)
T1 sequence (Q13164 whole entry): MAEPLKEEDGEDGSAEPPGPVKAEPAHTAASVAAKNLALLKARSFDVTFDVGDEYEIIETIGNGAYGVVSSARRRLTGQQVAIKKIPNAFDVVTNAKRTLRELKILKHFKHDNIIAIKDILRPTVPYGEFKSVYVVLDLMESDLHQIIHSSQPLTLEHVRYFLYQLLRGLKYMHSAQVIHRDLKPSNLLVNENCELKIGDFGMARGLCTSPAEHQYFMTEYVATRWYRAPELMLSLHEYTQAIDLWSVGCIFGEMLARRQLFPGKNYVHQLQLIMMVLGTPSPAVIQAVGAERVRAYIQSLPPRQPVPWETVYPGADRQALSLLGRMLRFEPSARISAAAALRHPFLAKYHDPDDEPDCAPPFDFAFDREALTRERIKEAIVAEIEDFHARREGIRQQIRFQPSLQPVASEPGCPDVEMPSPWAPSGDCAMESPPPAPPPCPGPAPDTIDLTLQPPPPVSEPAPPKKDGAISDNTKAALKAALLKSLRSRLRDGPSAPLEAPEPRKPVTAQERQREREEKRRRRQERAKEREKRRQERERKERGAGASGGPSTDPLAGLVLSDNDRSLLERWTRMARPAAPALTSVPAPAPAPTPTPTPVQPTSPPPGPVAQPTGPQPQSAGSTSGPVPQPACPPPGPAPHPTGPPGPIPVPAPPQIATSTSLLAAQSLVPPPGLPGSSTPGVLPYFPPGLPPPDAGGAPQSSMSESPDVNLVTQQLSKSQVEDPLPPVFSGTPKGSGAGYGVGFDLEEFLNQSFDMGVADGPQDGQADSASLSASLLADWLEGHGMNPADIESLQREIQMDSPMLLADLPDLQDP
Description: (§1) Two assays were performed to assess the ERK5 inhibitory activity of compounds of the Examples, a cell-based assay and a cell-free biochemical assay. Where repeat measurements were taken, the value reported is a mean average.
Inhibition of Cellular ERK5 Activity
The renal cancer cell line SN12C was transduced by a lentivirus pGreenFire1 MEF2 EF1 Neo (ref TR030VA-N) from SBI using standard infection protocol. pGreenFire1 MEF2 EF1 Neo allows the expression of luciferase gene under the control of minimal promoter with MEF2 transcriptional response elements. Cells harboring the reporter construct were selected by geneticin treatment. The selected cells were then transposed by a piggyback based plasmid pCM4007 allowing the expression of constitutively activated MEK5DD under control of TREG3 promoter, a doxycycline regulated promoter. Transposed cells were selected by puromycin treatment. Upon doxycycline treatment (1 μg/ml) MEK5DD was expressed. MEK5DD activates ERK5 that phosphorylates MEF2C protein. Activated MEF2C protein can bind to its transcriptional response elements. Then the luciferase is expressed. In a 96-well plate (96F nuncleon ref137101 thermofisher), 50,000 cells were inoculated in 142.5 μl of RPMI medium containing 10% fetal calf serum, 1% glutamine, and 1 μg/ml doxycycline. After 24 hours, compounds were added in 7.5 μl culture medium (with 2% DMSO to give a final concentration of 0.1%) in order to obtain the desired concentration (0.3-10000 nM). The luciferase activity was measured using the Kit Bright Glo Luminescent Cell Assay Cat E2610 (Promega) according to the manufacturer's protocol. Luminescence was determined using 0.2 second reading/well using a Tecan SPARK. IC50 values were calculated using XLFIT5 for Microsoft Excel using method 205. The IC50 values represent the concentration of compound which inhibits the measurable luminescence signal by 50% as compared to DMSO-treated control cells.

[1] = biological target: T2, activated catalytic domain of protein ERK5 (Homo sapiens, UniProt Q13164); experiment: Cell-Free Assay of ERK5 Inhibition (Time-Resolved Forster Resonance Energy Transfer); assay type: biochemical; conditions: ERK5 4 nM, 1 mM ATP, 1 μM biotinylated 4EBP1 peptide, 30 min at 37° C.; TR-FRET; mean where repeated
T2 construct: purchased CarnaBiosciences #04-146
T2 sequence (Q13164 55-347 limits assumed): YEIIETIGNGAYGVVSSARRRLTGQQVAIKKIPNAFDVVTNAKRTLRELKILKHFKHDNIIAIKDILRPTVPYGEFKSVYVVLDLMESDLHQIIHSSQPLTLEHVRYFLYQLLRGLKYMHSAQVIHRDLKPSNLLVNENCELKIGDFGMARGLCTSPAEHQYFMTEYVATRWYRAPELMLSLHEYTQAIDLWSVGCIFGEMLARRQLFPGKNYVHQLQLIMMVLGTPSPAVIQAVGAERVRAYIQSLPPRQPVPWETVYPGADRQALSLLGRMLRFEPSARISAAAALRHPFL
Description: as §1
Cell-Free Assay of ERK5 Inhibition
An assay was performed to measure the capacity of each compound to inhibit ERK5 enzymatic activity. Compound potency was evaluated by Time-Resolved Forster Resonance Energy Transfer (FRET system). The activated catalytic domain of protein ERK5 (CarnaBiosciences #04-146) was mixed at 4 nM with varying concentrations of compound and incubated for 30 minutes at room temperature. A mixture of 1 mM ATP and 1 μM biotinylated synthetic peptide was added (Biosyntan GmbH). This synthetic peptide represents amino acids 30-52 of Eukaryotic translation initiation factor 4E-binding protein 1 (see, e.g., the sequence under accession No. NP_004086.1) biotinylated at the N-terminus. After 30 minutes at 37° C., the peptide phosphorylation by ERK5 was measured by addition of FRET reagents consisting of 12.5 µg/ml Streptavidin-XL665, 1 nM Anti-P-4EBP1 antibody and 300 ng/ml Anti-rabbit-K antibody. Following 90 minutes at room temperature fluorescent signals were read on the Pherastar FSX multimod detector from BMG Labtech (Exc° 340 nm, Em1 620 nm, Em2 665 nm). The IC50 values represent the concentration of compound which inhibits the measurable fluorescence signal by […] as compared to the DMSO only control.

| Structure (SMILES) | IC50 (Cellular ERK5 Activity) | IC50 [1] |
| --- | --- | --- |
| O=C(c1ccc(OC(F)(F)F)cc1)N1CCC(c2c[nH]c3ncc(C4CCOC4)nc23)CC1 (racemic) [Example 5, (rac)-[4-(2-Tetrahydrofuran-3-yl-5H-pyrrolo[2,3-b]pyrazin-7-yl)-1-piperidyl]-[4-(trifluoromethoxy)phenyl]methanone] | 88 nM | 212 nM |
| Nc1cc(OC(F)(F)F)ccc1C(=O)N1CCC(c2c[nH]c3ncc(C4CCOC4)nc23)CC1 (racemic) [Example 12, (rac)-[2-Amino-4-(trifluoromethoxy)phenyl]-[4-(2-tetrahydrofuran-3-yl-5H-pyrrolo[2,3-b]pyrazin-7-yl)-1-piperidyl]methanone] | – | 130 nM |
| Nc1cc(OC(F)(F)F)ccc1C(=O)N1CCC(c2c[nH]c3ncc(C4CCOCC4)nc23)C1 (racemic) [Example 24, (rac)-[2-Amino-4-(trifluoromethoxy)phenyl]-[3-(2-tetrahydropyran-4-yl-5H-pyrrolo[2,3-b]pyrazin-7-yl)pyrrolidine-1-yl]methanone] | 261 nM | – |
| O=C(c1ccc(OC(F)(F)F)cc1)N1CCC(c2c[nH]c3ncc(C4CCOCC4)nc23)C1 (racemic) [Example 25, (rac)-[3-(2-Tetrahydropyran-4-yl-5H-pyrrolo[2,3-b]pyrazin-7-yl)pyrrolidin-1-yl]-[4-(trifluoromethoxy)phenyl]methanone] | 230 nM | – |
| O=C(c1ccc(OC(F)(F)F)cc1)N1CCC(c2c[nH]c3ncc(NC4CCOC4)nc23)CC1 (racemic) [Example 36, (rac)-[4-[2-[[tetrahydrofuran-3-yl]amino]-5H-pyrrolo[2,3-b]pyrazin-7-yl]-1-piperidyl]-[4-(trifluoromethoxy)phenyl]methanone] | 124 nM | 291 nM |
| Nc1cc(OC(F)(F)F)ccc1C(=O)N1CCC(c2c[nH]c3ncc(NC4CCOC4)nc23)CC1 (racemic) [Example 37, (rac)-[2-amino-4-(trifluoromethoxy)phenyl]-[4-[2-[[tetrahydrofuran-3-yl]amino]-5H-pyrrolo[2,3-b]pyrazin-7-yl]-1-piperidyl]methanone] | 60 nM | 94 nM |
| Nc1cc(S(F)(F)(F)(F)F)ccc1C(=O)N1CCC(c2c[nH]c3ncc(C4CCOCC4)nc23)C1 (racemic) [Example 43, (rac)-[2-amino-4-(pentafluoro-λ^6-sulfanyl)phenyl]-[3-(2-tetrahydropyran-4-yl-5H-pyrrolo[2,3-b]pyrazin-7-yl)pyrrolidin-1-yl]methanone] | 357 nM | 9720 nM |
| Nc1cc(OC(F)(F)F)ccc1C(=O)N1CCC(c2c[nH]c3ncc(C4CCOC4)nc23)CC1 (single isomer, unassigned) [Example 13, [2-Amino-4-(trifluoromethoxy)phenyl]-[4-(2-tetrahydrofuran-3-yl-5H-pyrrolo[2,3-b]pyrazin-7-yl)-1-piperidyl]methanone] | 49 nM | 93 nM |
| Nc1cc(OC(F)(F)F)ccc1C(=O)N1CCC(c2c[nH]c3ncc(C4CCOC4)nc23)CC1 (single isomer, unassigned) [Example 14, [2-Amino-4-(trifluoromethoxy)phenyl]-[4-(2-tetrahydrofuran-3-yl-5H-pyrrolo[2,3-b]pyrazin-7-yl)-1-piperidyl]methanone] | 46 nM | 99 nM |
| O=C(c1ccc(OC(F)(F)F)cc1)N1CCC(c2c[nH]c3ncc(NC4CCOC4)nc23)CC1 (single isomer, unassigned; isomer 1) [Example 32, [4-[2-[[tetrahydrofuran-3-yl]amino]-5H-pyrrolo[2,3-b]pyrazin-7-yl]-1-piperidyl]-[4-(trifluoromethoxy)phenyl]methanone, Isomer 1] | 79 nM | 361 nM |
| Nc1cc(OC(F)(F)F)ccc1C(=O)N1CCC(c2c[nH]c3ncc(NC4CCOC4)nc23)CC1 (single isomer, unassigned; isomer 1) [Example 34, [2-amino-4-(trifluoromethoxy)phenyl]-[4-[2-[[tetrahydrofuran-3-yl]amino]-5H-pyrrolo[2,3-b]pyrazin-7-yl]-1-piperidyl]methanone, Isomer 1] | > 10000 nM | 94 nM |
| O=C(c1ccc(OC(F)(F)F)cc1)N1CCC(c2c[nH]c3ncc(NC4CCOC4)nc23)CC1 (single isomer, unassigned; isomer 2) [Example 33, [4-[2-[[tetrahydrofuran-3-yl]amino]-5H-pyrrolo[2,3-b]pyrazin-7-yl]-1-piperidyl]-[4-(trifluoromethoxy)phenyl]methanone, Isomer 2] | 126 nM | 335 nM |
| Nc1cc(OC(F)(F)F)ccc1C(=O)N1CCC(c2c[nH]c3ncc(NC4CCOC4)nc23)CC1 (single isomer, unassigned; isomer 2) [Example 35, [2-amino-4-(trifluoromethoxy)phenyl]-[4-[2-[[tetrahydrofuran-3-yl]amino]-5H-pyrrolo[2,3-b]pyrazin-7-yl]-1-piperidyl]methanone, Isomer 2] | 246 nM | 131 nM |
| CN1CCC(c2cnc3[nH]cc(C4CCN(C(=O)c5ccc(OC(F)(F)F)cc5N)CC4)c3n2)CC1 [Example 1, [2-Amino-4-(trifluoromethoxy)phenyl]-[4-[2-(1-methyl-4-piperidyl)-5H-pyrrolo[2,3-b]pyrazin-7-yl]-1-piperidyl]methanone] | 20 nM | 17 nM |
| Nc1cc(OC(F)(F)F)ccc1C(=O)N1CCC(c2c[nH]c3ncc(C4CCOCC4)nc23)CC1 [Example 2, [2-Amino-4-(trifluoromethoxy)phenyl]-[4-(2-tetrahydropyran-4-yl-5H-pyrrolo[2,3-b]pyrazin-7-yl)-1-piperidyl]methanone] | 15 nM | 37 nM |
| O=C(c1ccc(OC(F)(F)F)cc1)N1CCC(c2c[nH]c3ncc(C4CCOCC4)nc23)CC1 [Example 3, [4-(2-Tetrahydropyran-4-yl-5H-pyrrolo[2,3-b]pyrazin-7-yl)-1-piperidyl]-[4-(trifluoromethoxy)phenyl]methanone] | 41 nM | 172 nM |
| CN1CCC(c2cnc3[nH]cc(C4CCN(C(=O)c5ccc(OC(F)(F)F)cc5)CC4)c3n2)CC1 [Example 4, [4-[2-(1-Methyl-4-piperidyl)-5H-pyrrolo[2,3-b]pyrazin-7-yl]-1-piperidyl]-[4-(trifluoromethoxy)phenyl]methanone] | 60 nM | 66 nM |
| COCCCc1cnc2[nH]cc(C3CCN(C(=O)c4ccc(OC(F)(F)F)cc4)CC3)c2n1 [Example 6, [4-[2-(3-Methoxypropyl)-5H-pyrrolo[2,3-b]pyrazin-7-yl]-1-piperidyl]-[4-(trifluoromethoxy)phenyl]methanone] | 118 nM | 403 nM |
| COCCCc1cnc2[nH]cc(C3CCN(C(=O)c4ccc(OC(F)(F)F)cc4N)CC3)c2n1 [Example 7, [2-Amino-4-(trifluoromethoxy)phenyl]-[4-[2-(3-methoxypropyl)-5H-pyrrolo[2,3-b]pyrazin-7-yl]-1-piperidyl]methanone] | 56 nM | 169 nM |
| O=C(c1ccc(OC(F)(F)F)cc1)N1CCC(c2c[nH]c3ncc(C4CCCCC4)nc23)CC1 [Example 8, [4-(2-Cyclohexyl-5H-pyrrolo[2,3-b]pyrazin-7-yl)-1-piperidyl]-[4-(trifluoromethoxy)phenyl]methanone] | 226 nM | 25900 nM |
| Nc1cc(OC(F)(F)F)ccc1C(=O)N1CCC(c2c[nH]c3ncc(C4CCCCC4)nc23)CC1 [Example 9, [2-Amino-4-(trifluoromethoxy)phenyl]-[4-(2-cyclohexyl-5H-pyrrolo[2,3-b]pyrazin-7-yl)-1-piperidyl]methanone] | 156 nM | 2150 nM |
| Nc1cc(OC(F)(F)F)ccc1C(=O)N1CCC(c2c[nH]c3ncc([C@H]4CC[C@H](O)CC4)nc23)CC1 [Example 30, trans-[2-amino-4-(trifluoromethoxy)phenyl]-[4-[2-(4-hydroxycyclohexyl)-5H-pyrrolo[2,3-b]pyrazin-7-yl]-1-piperidyl]methanone] | – | 39 nM |
